This passage reports relative viability results from the supplement of paper PMC10307832.

Assay in all cases: relative viability (nuclei count vs DMSO), 5 days (fraction); higher = more cells survive
Compound in the assay “Ruxolitinib + Lapatinib”: N#CC[C@H](C1CCCC1)n1cc(-c2ncnc3[nH]ccc23)cn1 [Ruxolitinib] + CS(=O)(=O)CCNCc1ccc(-c2ccc3ncnc(Nc4ccc(OCc5cccc(F)c5)c(Cl)c4)c3c2)o1 [Lapatinib] (partner 2 µM)
The gist of the method: (§1)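 Lung cancer cell lines were pin-tool dosed in 1536-well plates on the day after seeding, with either a lone drug or a fixed anchor-drug dose plus five library-drug doses (not always all listed) in √10 steps. Nuclei were counted on 4× images after 5 days. Relative viability is the ratio of treated-well to vehicle-well nuclei counts, with each value a median of duplicate plates.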

Compound in the assay “Ruxolitinib + Luminespib”: N#CC[C@H](C1CCCC1)n1cc(-c2ncnc3[nH]ccc23)cn1 [Ruxolitinib] + CCNC(=O)c1noc(-c2cc(C(C)C)c(O)cc2O)c1-c1ccc(CN2CCOCC2)cc1 [Luminespib] (partner 0.01 µM)
The gist of the method: as §1

Compound in assay [1]: N#CC[C@H](C1CCCC1)n1cc(-c2ncnc3[nH]ccc23)cn1 [Ruxolitinib] + CC(=O)c1c(C)c2cnc(Nc3ccc(N4CCNCC4)cn3)nc2n(C2CCCC2)c1=O [Palbociclib] (partner 0.5 µM)
In a few lines: as §1

Compound in the assay “Vismodegib + Navitoclax”: CS(=O)(=O)c1ccc(C(=O)Nc2ccc(Cl)c(-c3ccccn3)c2)c(Cl)c1 [Vismodegib] + CC1(C)CCC(c2ccc(Cl)cc2)=C(CN2CCN(c3ccc(C(=O)NS(=O)(=O)c4ccc(N[C@H](CCN5CCOCC5)CSc5ccccc5)c(S(=O)(=O)C(F)(F)F)c4)cc3)CC2)C1 [Navitoclax] (partner 0.5 µM)
The gist of the method:
as §1

Take PC-3 [JPC-3]: the relative viability came to 0.452 with Ruxolitinib + Lapatinib (first compound 0.08 µM); 0.431 with Ruxolitinib + Lapatinib (first compound 0.253 µM); 0.46 with Ruxolitinib + Lapatinib (first compound 0.8 µM); 0.488 in the assay with Ruxolitinib + Lapatinib (first compound 2.53 µM); 0.505 with Ruxolitinib + Lapatinib (first compound 8 µM); 0.663 with Ruxolitinib + Luminespib (first compound 0.08 µM). Moreover, the relative viability with Ruxolitinib + Luminespib (first compound 0.253 µM) was 0.677; in the assay with Ruxolitinib + Luminespib (first compound 0.8 µM), 0.755; with Ruxolitinib + Luminespib (first compound 2.53 µM) it was 0.579; with Ruxolitinib + Luminespib (first compound 8 µM), 0.734; in assay [1] (first compound 0.253 µM), 0.596; in assay [1] (first compound 0.8 µM) it was 0.579. Also, the relative viability in assay [1] (first compound 2.53 µM) was determined as 0.566; in assay [1] (first compound 8 µM), 0.553; with Vismodegib + Navitoclax (first compound 0.08 µM), 0.758; with Vismodegib + Navitoclax (first compound 0.253 µM), 0.789; in the assay with Vismodegib + Navitoclax (first compound 0.8 µM) it was 0.769; in the assay with Vismodegib + Navitoclax (first compound 2.53 µM), 0.768. For the same cell line, the relative viability with Vismodegib + Navitoclax (first compound 8 µM) was 0.778.

On to PC-14, for which the relative viability was 0.243 in the assay with Ruxolitinib + Lapatinib (first compound 0.253 µM); 0.347 with Ruxolitinib + Lapatinib (first compound 0.8 µM); 0.316 in the assay with Ruxolitinib + Lapatinib (first compound 2.53 µM); 0.313 with Ruxolitinib + Lapatinib (first compound 8 µM); 0.181 with Ruxolitinib + Luminespib (first compound 0.253 µM); 0.175 in the assay with Ruxolitinib + Luminespib (first compound 0.8 µM). Moreover, the relative viability with Ruxolitinib + Luminespib (first compound 2.53 µM) amounted to 0.171; with Ruxolitinib + Luminespib (first compound 8 µM), 0.169; in assay [1] (first compound 0.253 µM), 0.546; in assay [1] (first compound 0.8 µM), 0.595; in assay [1] (first compound 2.53 µM), 0.46; in assay [1] (first compound 8 µM) it was 0.304. Further, the relative viability with Vismodegib + Navitoclax (first compound 0.08 µM) amounted to 0.967; in the assay with Vismodegib + Navitoclax (first compound 0.253 µM), 0.974; with Vismodegib + Navitoclax (first compound 0.8 µM), 1.1; in the assay with Vismodegib + Navitoclax (first compound 2.53 µM), 0.946; with Vismodegib + Navitoclax (first compound 8 µM), 0.965.

In the case of RERF-LC-KJ, the relative viability with Ruxolitinib + Lapatinib (first compound 0.08 µM) was 0.926; with Ruxolitinib + Lapatinib (first compound 0.253 µM) it was 0.859; in the assay with Ruxolitinib + Lapatinib (first compound 0.8 µM), 0.898; with Ruxolitinib + Lapatinib (first compound 2.53 µM), 0.909; with Ruxolitinib + Lapatinib (first compound 8 µM), 0.855; with Ruxolitinib + Luminespib (first compound 0.08 µM), 1.21. Further, the relative viability amounted to 1.31 with Ruxolitinib + Luminespib (first compound 0.253 µM); 1.4 with Ruxolitinib + Luminespib (first compound 0.8 µM); 1.21 in the assay with Ruxolitinib + Luminespib (first compound 2.53 µM); 0.919 in the assay with Ruxolitinib + Luminespib (first compound 8 µM); 1.03 in assay [1] (first compound 0.08 µM); 1.13 in assay [1] (first compound 0.253 µM). Further, the relative viability in assay [1] (first compound 0.8 µM) was found to be 1.25; in assay [1] (first compound 2.53 µM), 1.13; in assay [1] (first compound 8 µM), 0.934; with Vismodegib + Navitoclax (first compound 0.08 µM) it was 0.997; with Vismodegib + Navitoclax (first compound 0.253 µM), 1.08; with Vismodegib + Navitoclax (first compound 0.8 µM) it was 0.85. For the same cell line, the relative viability with Vismodegib + Navitoclax (first compound 2.53 µM) came out at 0.756; with Vismodegib + Navitoclax (first compound 8 µM), 0.802.

As to SK-LU-1, the relative viability with Ruxolitinib + Lapatinib (first compound 0.08 µM) was determined as 0.973; with Ruxolitinib + Lapatinib (first compound 0.253 µM), 0.991; with Ruxolitinib + Lapatinib (first compound 0.8 µM), 0.896; with Ruxolitinib + Lapatinib (first compound 2.53 µM), 0.819; with Ruxolitinib + Lapatinib (first compound 8 µM), 0.693; with Ruxolitinib + Luminespib (first compound 0.08 µM), 0.185. Moreover, the relative viability in the assay with Ruxolitinib + Luminespib (first compound 0.253 µM) is 0.204; with Ruxolitinib + Luminespib (first compound 0.8 µM), 0.255; with Ruxolitinib + Luminespib (first compound 2.53 µM) it was 0.182; with Ruxolitinib + Luminespib (first compound 8 µM), 0.207; in assay [1] (first compound 0.08 µM) it was 0.426; in assay [1] (first compound 0.253 µM), 0.416. In addition, the relative viability in assay [1] (first compound 0.8 µM) is 0.421; in assay [1] (first compound 2.53 µM) it was 0.374; in assay [1] (first compound 8 µM), 0.336; in the assay with Vismodegib + Navitoclax (first compound 0.08 µM), 0.831; with Vismodegib + Navitoclax (first compound 0.253 µM) it was 0.695; in the assay with Vismodegib + Navitoclax (first compound 0.8 µM), 0.834. Besides, the relative viability with Vismodegib + Navitoclax (first compound 2.53 µM) was 0.736; in the assay with Vismodegib + Navitoclax (first compound 8 µM) it was 0.936.

SK-MES-1: the relative viability with Ruxolitinib + Lapatinib (first compound 0.08 µM) came out at 0.493; with Ruxolitinib + Lapatinib (first compound 0.253 µM) it was 0.412; in the assay with Ruxolitinib + Lapatinib (first compound 0.8 µM) it was 0.448; with Ruxolitinib + Lapatinib (first compound 2.53 µM), 0.474; in the assay with Ruxolitinib + Lapatinib (first compound 8 µM), 0.42; with Ruxolitinib + Luminespib (first compound 0.08 µM), 0.782. In addition, the relative viability amounted to 0.84 with Ruxolitinib + Luminespib (first compound 0.253 µM); 0.762 in the assay with Ruxolitinib + Luminespib (first compound 0.8 µM); 0.652 with Ruxolitinib + Luminespib (first compound 2.53 µM); 0.549 in the assay with Ruxolitinib + Luminespib (first compound 8 µM); 0.331 in assay [1] (first compound 0.08 µM); 0.336 in assay [1] (first compound 0.253 µM). Besides, the relative viability is 0.332 in assay [1] (first compound 0.8 µM); 0.305 in assay [1] (first compound 2.53 µM); 0.321 in assay [1] (first compound 8 µM); 1.23 with Vismodegib + Navitoclax (first compound 0.08 µM); 1.22 with Vismodegib + Navitoclax (first compound 0.253 µM); 1.23 with Vismodegib + Navitoclax (first compound 0.8 µM). Besides, the figures for the relative viability in the assay with Vismodegib + Navitoclax (first compound 2.53 µM) and with Vismodegib + Navitoclax (first compound 8 µM) were 1.15 and 1.17, respectively.

As for SW 1573, the relative viability was 1.05 with Ruxolitinib + Lapatinib (first compound 0.08 µM); 0.99 in the assay with Ruxolitinib + Lapatinib (first compound 0.253 µM); 1.16 with Ruxolitinib + Lapatinib (first compound 0.8 µM); 1.07 with Ruxolitinib + Lapatinib (first compound 2.53 µM); 1.09 with Ruxolitinib + Lapatinib (first compound 8 µM); 0.228 with Ruxolitinib + Luminespib (first compound 0.08 µM). The relative viability with Ruxolitinib + Luminespib (first compound 0.253 µM) was 0.214; in the assay with Ruxolitinib + Luminespib (first compound 0.8 µM), 0.184; in the assay with Ruxolitinib + Luminespib (first compound 2.53 µM), 0.241; in the assay with Ruxolitinib + Luminespib (first compound 8 µM), 0.21; in assay [1] (first compound 0.08 µM), 0.436; in assay [1] (first compound 0.253 µM) it was 0.382. The relative viability came out at 0.411 in assay [1] (first compound 0.8 µM); 0.546 in assay [1] (first compound 2.53 µM); 0.299 in assay [1] (first compound 8 µM); 0.808 with Vismodegib + Navitoclax (first compound 0.08 µM); 0.94 with Vismodegib + Navitoclax (first compound 0.253 µM); 0.886 with Vismodegib + Navitoclax (first compound 0.8 µM). Moreover, the relative viability with Vismodegib + Navitoclax (first compound 8 µM) came out at 1.04.
